From US7728128B2, “Dibenzo[c,h][1,5]naphthyridines and their use as DNA probes” (Institut National de la Sante et de la Recherche Medicate …, priority 2006, dated 2010)
In brackets after ≈: the same amount, converted by molar mass.

Assays:
Xenopus cells XL177 = test: visual phenotypic screen on live Xenopus cells XL177; format: cell-based
Experimental: In this study, three different types of cells were used: Xenopus epithelial cell line XL177 (Miller, L. et al., 1977, In Vitro, 13, 557-563) stably transformed with a YFP-α-tubulin expressing construct (pEYFP-Tub, Clontech), mouse fibroblasts, and primary human skin fibroblasts. XL177 cells were grown at 20° C. in 60% Leibowitz-15 medium, supplemented with antibiotics, 10% fetal calf serum (FCS) and 10 mM HEPES, pH 7.2 with addition of 0.7 mg/ml G418. Cells were plated into glass-bottom 96-well plates (Greiner, Germany) and left to spread for 24 hours before being incubated in the presence of the test compounds from the Curie-CNRS small molecule library (at 25 or 50 μM final concentration) for another 20-24 hours. Mouse and human fibroblasts were grown in DMEM with antibiotics and 10% FCS at 37° C. in the presence of 5% CO2. The cells were observed using a Zeiss Axiovert 200M microscope with a 40× oil immersion objective and a standard Alexa488/FITC filter (Omega, XF100-2; Ex475AF40/Em535AF45/Dichroic505). Subsequent experiments were carried out using smaller concentrations of compound I and incubation times as described in the text and figures legends. For the in vivo tests of compound I-like compounds, the molecules were added to cell culture medium at 10 μM final concentration and incubated with cells 10-60 min (up to 24 hours) prior to scoring.
The signal appeared after 10-20 sec illumination and was stable for many minutes thereafter (see below).

CT DNA = test: viscometry (hydrodynamic studies) of CT DNA solutions; format: binding, calf
Experimental: Calf thymus (CT) DNA was dissolved in 50 mM Na-phosphate buffer, pH 7.2, to a concentration of 0.1 or 0.5 mM relative to base pairs as described in the legend for FIGS. 3A and B. DNA solution was allowed to run through a custom-made capillary viscometer and the time necessary for the meniscus to pass a certain distance was measured using a stopwatch. All experiments were performed at 23° C. Viscosity values were calculated using the equation: η=(t−t0)/t0, where t is the flow time of DNA solution (with or without dye), and t0 is the flow time of Na-phosphate buffer alone. For each control and DNA solutions with dyes flow times were measured three to five times. Viscosity of DNA solutions with dyes were calculated as (η/η0)^1/3, where η0 and η are relative viscosities of the CT DNA solution in the absence and presence of the dye, respectively. This calculation stems from the relationship which exists between the relative solution viscosity and the relative contour length (L/L0): L/L0=(η/η0)^1/3, where L stands for the apparent molecular length (Muller, W. et al., 1968, J Mol Biol, 35, 251-290). Average viscosity values and standard error of the mean (SEM) were determined using (η/η0)^1/3 values calculated for each time flow measurement.
DNA-binding dyes interact with dsDNA by intercalation or external binding, or both. External binding most often involves the minor groove of DNA (Kopka et al.; Pjura, P. E., et al., 1987, J Mol Biol, 197, 257-271). Intercalation occurs when a ligand inserts itself between the opposite strands of DNA. In order to determine the mechanism of compound I binding to dsDNA, the inventors performed hydrodynamic studies. This approach is based on the observation that intercalating molecules increase the length of DNA fragments and, consequently, enhance the viscosity of DNA solutions (Muller W. et al.; Suh, D. et al., 1995, Bioorg Med Chem, 3, 723-728). For this experiment, compound I has been compared to the known DNA intercalator ethidium bromide and to the external minor groove binder Hoechst 33258. CT DNA at 0.5 mM was mixed with drugs at 0.1 mM concentration (0.2 dye/bp ratio) and used for viscometry measurements.
The inventors then wondered whether the increase in viscosity is equally matched by the increase in fluorescence intensity. To answer this question, CT DNA at 0.1 mM (bp) was mixed with increasing amounts of compound I and viscosity measurements were performed as above. The viscosity of the DNA/compound I solutions increased up to a dye/bp ratio 1 (FIG. 3B). To correlate the increase in viscosity with fluorescence, the inventors measured fluorescence intensities at 484 nm of the compound I/DNA solutions used for the viscosity measurements.

solubility in DMSO = format: physicochemical; conditions: organic solvent or mixture, free base, read-out: solubility (saturation)
Experimental: Solubility of compound I: In DMSO, compound I (free base) is soluble until saturation at ˜7 mM. As much as 1 volume of 7 mM, compound I in DMSO mixed with 7 volumes of H2O forms a turbid solution (0.875 mM compound I in ˜12% DMSO). Upon sonication for 1 min, this solution becomes limpid and can be further dissolved in aqueous solutions.

- cell membrane permeability (Xenopus cells XL177; live cells): cell-membrane permeant
- solubility (solubility in DMSO): ~7 mM (≈ 2830 µg/mL)
SMILES: COc1ccc2c(c1)c(C)nc1c3ccc(OC)cc3c(NCCCN(C)C)nc21 [Compound I, N′-(2,8-dimethoxy-12-methyl-dibenzo[c,h][1,5]naphthyridin-6-yl)-N,N-dimethyl-propane-1,3-diamine]
- illumination time before nuclear signal appeared (Xenopus cells XL177; Alexa488/FITC filter): 10 to 20 s
- toxicity in cultured cells (Xenopus cells XL177; standard cell culture conditions): non-toxic under standard cell culture conditions (up to six days in culture)
- dye/bp ratio up to which viscosity increased (CT DNA; CT DNA 0.1 mM (bp)): ≤ 1
- dye/bp ratio of maximal fluorescence intensity (CT DNA; CT DNA 0.1 mM (bp), 484 nm): 0.2
- effect on viscosity of DNA solution (CT DNA; CT DNA 0.5 mM, drug 0.1 mM (0.2 dye/bp ratio)): increasing the viscosity of the DNA solution
